# According to patent US8557859B2, “Immunomodulatory compositions” (Summit (Wales) Limited, priority 2003, dated 2013):
# Assays:
# Dendritic cells = test: Induction of IL-12 secretion in dendritic cells (ELISA); format: cell-based, BALB/c mice; details: dendritic cells; compounds 50 μg/ml and 20 μg/ml, 24 hrs (or 48 hrs)
# Experimental: BALB/c male and female mice bred and maintained at the University of Strathclyde under conventional conditions were used at 8 weeks old.
# Bone marrow was obtained from the femurs of mice. The femurs were washed in 70% ethanol and placed in a clean petri dish. Dendritic cell (DC) medium (2.5% granulocyte-macrophage colony-stimulating factor (GM-CSF), 10% […] foetal calf serum, 1% L-glutamine, 1% Penicillin/Streptomycin in RPMI-1640 medium) was injected into the bone marrow of the femur by a pumping action and the cells and medium were collected. 1 ml of the cells in medium was added to a 75 cm^2 flask with 15 mls of DC medium. The flasks were then incubated at 37° C., 5% CO2 to allow DC growth and development. After 5 days an additional 10 mls of DC medium was added.
# After 10 days of incubation of bone marrow with GM-CSF, the dendritic cells were harvested. This process was carried out in a tissue culture hood. The contents of the flasks were poured into centrifuge tubes to ensure collection of floating DCs. Approximately 10 mls of cooled phosphate buffered saline (PBS) was added to each empty flask, the flasks gently agitated and the contents collected. […] The collected contents of the flasks were centrifuged for 5 minutes at 200 g and the pellet resuspended in 2 mls of DC medium without GM-CSF. A cell count was then carried out.
# Cells were counted using a haemocytometer. Approximately 20 μl of the resuspended cells was pipetted into the chamber of the haemocytometer, the cells were adjusted to the correct cell concentration (approx. 5×10^4, and not less than 1×10^4, per well) and then plated out for assay.
# The plates were incubated overnight at 37° C. with 5% CO2 and allowed to settle (harvesting stimulates them). The next day the compounds (50 μg/ml and 20 μg/ml) and controls were added then again incubated at 37° C. with 5% CO2 for 24 hrs (or 48 hrs). Harvesting and addition of the compounds was all done in a hood. The plates were then frozen to kill the cells and once defrosted the supernatant analysed as described below.
# Using an enzyme linked immunosorbent assay (ELISA) IL-12 concentration in the supernatants was measured. All reagents used in this assay were from PharMingen. A 96-well flat-bottomed ELISA plate was coated with purified rat anti-mouse IL-12 (p40/p70) MAb (Cat no. 554478) at 2 μg/ml diluted in PBS pH 9.0 at 50 μl/well. The plate was then covered in cling film and incubated at 4° C. Following incubation the plate was washed 3 times in washing buffer and dried. 200 μl of blocking buffer (10% foetal calf serum in PBS pH 7.0) was added to each well then covered in cling film and incubated at 37° C. for 45 minutes. The plate was washed 3 times and dried. Recombinant mouse Il-12 standard was added at 30 μl in duplicate wells, starting at 10 ng/ml then 5, 2.5, 1.25, 0.625, 0.31, 0.156, 0.078, 0.039, 0.020, 0.010, 0.005 ng/ml. Standards were diluted in blocking buffer. The supernatant samples were added in at 50 μl/well. The plate was then covered in cling film and incubated for 2 hours at 37° C. The plate was then washed 4 times, dried and the secondary antibody added.
# Biotin labelled anti-mouse IL-12 (p40/p70) MAb (Cat no. 18482D) at 1 μg/ml (diluted in blocking buffer) was added to each well at a volume of 100 μl/well. The plate was covered in cling film and incubated at 37° C. for 1 hour. The plate was then washed 5 times, dried and the conjugate added. Streptavidin-AKP (Cat no. 13043E) at 100 μl/well was added at a dilution of 1/2000 in blocking buffer followed by incubation under cling film at 37° C. for 45 minutes.
# The plate was finally washed 6 times, dried and the substrate added. pNPP (Sigma) in glycine buffer at 1 mg/ml was added at 100 μl/well. The plate was then covered in tinfoil, incubated at 37° C. and checked every 30 minutes for a colour change.
# The plate was then read at 405 nm using a SPECTRAmax 190 spectrometer.
# MCF-7 cells = test: Effect on glycosylation of breast cancer cells; format: cell-based; details: MCF-7, 0.75 mM; difference from untreated cells at the 62 and 86 hour time points
# Experimental: MCF-7 cells (European Collection of Cell Cultures Ref. 86012803) were taken from liquid nitrogen stock, thawed at room temperature and transferred to 10 ml Dulbeccos Modified Eagle's Medium with Hams F12, 15 mM Hepes and L-glutamine (DMEM: Cambrex Cat. No. BE12-719F) supplemented with 10% v/v foetal calf serum (FCS: BioWest Labs Cat. No. S02755, Lot. No. S1800). The FCS was pre-filtered through a 0.2 μm steril filter.
# The cells were then centrifuged at 1,500 rpm in a Centaur bench-top centrifuge and the supernatant removed. The cells were reconstituted in fresh media and seeded into two T75 cm^3 Nunclon tissue culture flasks and allowed to settle overnight at 37° C. in a 5% CO2 incubator. The flasks were wrapped in cling film to prevent cross-contamination and the following day the media was changed to include the antibiotics penicillin and streptomycin as a precautionary measure against infection (at concentrations of 1 mg/cm^3 and 5 mg/cm^3, respectively). […]
# The cells were harvested using a non-enzymatic method. At each of the time points the cells were viewed under the inverted light microscope and the morphology evaluated. […] The number of cells was then counted in a haemocytometer and cell viability evaluated by mixing 0.1 cm^3 of each cell suspension with a drop of trypan blue solution. […]
# Evaluated using the BioRad protein assay according to the manufacturer's instructions. […]
# β-D-glucosidase = test: Glycosidase inhibition, β-D-glucosidase; format: biochemical, Almonds (Prunus sp.)
# Experimental: All enzymes were purchased from Sigma, as were the appropriate p-nitrophenyl substrates. Assays were carried out in microtitre plates. Enzymes were assayed in 0.1 M citric acid/0.2M di-sodium hydrogen phosphate (McIlvaine) buffers at the optimum pH for the enzyme. All assays were carried out at 20° C. For screening assays the incubation assay consisted of 10 μl of enzyme solution, 10 μl of inhibitor solution (made up in water) and 50 μl of the appropriate 5 mM p-nitrophenyl substrate (3.57 mM final conc.) made up in McIlvaine buffer at the optimum pH for the enzyme.
# The reactions were stopped with 0.4M glycine (pH 10.4) during the exponential phase of the reaction, which was determined at the beginning of the assay using blanks with water, which were incubated for a range of time periods to measure the reaction rate using 5 mM substrate solution. Endpoint absorbances were read at 405 nm with a Biorad microtitre plate reader (Benchmark). Water was substituted for the inhibitors in the blanks.
# B16-F10 tumour cells = test: Control of lung metastasis in mice; format: in vivo, Mice (C57/bl6); details: 50 mg/kg s/c on days 2 and 4; lungs on day 14
# Experimental: Mice (C57/bl6 under i/p ketamine anaesthesia) were challenged i/v (tail vein) with 5×10^4 B16-F10 tumour cells in a final volume of 100 μl per mouse on day 0. Test compounds (50 mg/kg in 200 μl sterile non-pyrogenic saline) were administered s/c (right flank) on days 2 and 4. On day 14 the mice were sacrifices and the lungs dissected and stained in Indian ink solution (150 ml bidistilled water, 30 ml India Ink, 4 drops NH4OH) for 10 minutes then fixed for at least 24 hr in Fakete's solution (90 ml 37% formaldehyde, 900 ml 70% EtOH and 45 ml glacial acetic acid). The metastases in the stained and fixed lungs could then be visualized, counted and photographed.
# [1] = molecular target: rabbit gut mucosa α-D-glucosidase; test: Inhibition of rabbit gut mucosa α-D-glucosidase; format: biochemical
smiles,measurement,setting,value
"OC[C@@H]1[C@@H](O)[C@H](O)[C@H]2[C@H](O)[C@@H](O)CN21 [casuarine (8), (1R,2R,3R,6S,7S,7aR)-3-(hydroxymethyl)-1,2,6,7-tetrahydroxypyrrolizidine]",IL-12 RELEASE,Dendritic cells,Yes
same,glycan synthesis and/or N-linked glycosylation in breast cancer cells,MCF-7 cells,can inhibit glycan synthesis and/or N-linked glycosylation
same,% inhibition glucosidase,β-D-glucosidase; 1 mg/ml,0%
same,inhibition of almond 6-D-glucosidase,β-D-glucosidase; at 800 μM,not being inhibitory
same,Metastatic morphology,B16-F10 tumour cells,Metastasis restricted to apical tip of lung
same,IC50,[1],210 µM
